Source: ChEMBL document CHEMBL4145634, “Discovery of Janus Kinase 2 (JAK2) and Histone Deacetylase (HDAC) Dual Inhibitors as a Novel Strategy for the Combinational Treatment of Leukemia and Invasive Fungal Infections” (J Med Chem, 2018)
In brackets after ≈: the same amount, converted by molar mass. Activity calls are given as the source filed them. The calls are words filed in the database; no cut-off is given here.

Assays:
Mus musculus [1] = assay: Toxicity in BALB/C nude mouse xenografted with human HEL cells assessed as reduction in body weight at 10 mg/kg, ip bid treated for 21 consecutive days; type: organism-based; settings: in vivo
[2] = biological target: Tyrosine-protein kinase JAK2 (Homo sapiens, UniProt O60674); assay: Inhibition of JAK2 in human HEL cells assessed as decrease in STAT5 phosphorylation after 24 hrs by Western blot analysis; type: cell-based
Candida albicans [3] = assay: microbe, parasite or virus in culture; type: functional; settings: Candida albicans, 0304103, 48 h
Description: Antifungal activity against FLC resistant Candida albicans 0304103 assessed as fluconazol MIC50 after 48 hrs by checkerboard microdilution method

Mus musculus [4] = assay: Toxicity in BALB/C nude mouse xenografted with human HEL cells at 10 mg/kg, ip bid treated for 21 consecutive days; type: organism-based; settings: in vivo
[5] = biological target: Tyrosine-protein kinase JAK1 (Homo sapiens, UniProt P23458); assay: Inhibition of JAK1 (unknown origin) using FAM-labeled peptide as substrate preincubated for 10 mins followed by substrate addition and measured after 25 mins in presence of ATP
K562 = assay: Antiproliferative activity against human K562 cells after 48 hrs by CCK-8 assay; type: functional, cell-based; settings: K562, 48 h
Mus musculus [6] = assay: In vivo antifungal activity against FLC resistant Candida albicans 0304103 infected in ICR mouse assessed as mouse survival at 5 mg/kg, ip qd up to 20 days in co-treated with 1 mg/kg, ip qd fluconazol (reference value: 4.5 day); type: functional
HEL [7] = assay: Induction of apoptosis in human HEL cells after 48 hrs by Annexin-V-FITC/propidium iodide staining based flow cytometry; type: functional, cell-based
Candida albicans [8] = assay: microbe, parasite or virus in culture; type: functional; settings: Candida albicans, 0710922, 48 h
Description: Antifungal activity against FLC resistant Candida albicans 0710922 after 48 hrs by checkerboard microdilution method

Candida albicans [9] = assay: microbe, parasite or virus in culture; type: functional; settings: Candida albicans, 0710922, 48 h; remark: listed apart in the source
Description: Antifungal activity against FLC resistant Candida albicans 0710922 assessed as fluconazol MIC50 after 48 hrs by checkerboard microdilution method

Candida albicans [10] = assay: Antibiofilm activity against FLC resistant Candida albicans 0304103 assessed as inhibition of biofilm formation pre-incubated with 64 ug/ml FLC for 90 mins followed by further incubation with compound for 24 hrs by XTT reduction assay; type: functional, organism-based
Candida albicans [11] = assay: Antifungal activity against FLC resistant Candida albicans 0304103 at 32 ug/ml up to 24 hrs in presence of fluconazol by checkerboard microdilution method; type: functional, organism-based
Candida albicans [12] = assay: Antifungal activity against FLC resistant Candida albicans 100 after 48 hrs in presence of fluconazol by checkerboard microdilution method; type: functional; settings: Candida albicans, 100, 48 h
Candida albicans [13] = assay: Synergistic antifungal activity against FLC resistant Candida albicans 0304103 assessed as FIC index after 48 hrs by checkerboard microdilution method; type: functional
HL-60 = assay: Antiproliferative activity against human HL60 cells after 48 hrs by CCK-8 assay; type: functional, cell-based; settings: HL-60, 48 h
[14] = biological target: Histone deacetylase 3/NCoR1 (Homo sapiens, UniProt O15379); assay: Inhibition of human recombinant HDAC3/GST-tagged NCOR1 (397 to 503 residues) co-expressed in insect cells using (Ac-Leu-Gly-Lys(Ac)-AMC as substrate preincubated for 5 mins followed by substrate addition and measured after 30 mins by fluorescence assay
Histone deacetylase 2 = Histone deacetylase 2 (Homo sapiens, UniProt Q92769); assay: Inhibition of recombinant HDAC2 (unknown origin) using (Ac-Leu-Gly-Lys(Ac)-AMC as substrate preincubated for 5 mins followed by substrate addition and measured after 30 mins by fluorescence assay
Candida albicans [15] = assay: microbe, parasite or virus in culture; type: functional; settings: Candida albicans, 0710922, 48 h; remark: listed apart in the source
Description: Antifungal activity against FLC resistant Candida albicans 0710922 after 48 hrs in presence of fluconazol by checkerboard microdilution method

HEL [16] = assay: Antiproliferative activity against human HEL cells after 48 hrs by CCK-8 assay; type: functional, cell-based
Mus musculus [17] = assay: Protection against spleen enlargement in SCID mouse xenografted with human HEL cells at 10 mg/kg, ip qd; type: functional, organism-based
[18] = Half life in ICR mouse liver microsomes at 1 uM measured up to 45 mins in presence of NADPH by LC-MS/MS analysis; type: ADME, microsome
Candida albicans [19] = assay: microbe, parasite or virus in culture; type: functional; settings: Candida albicans, 0304103, 48 h; remark: listed apart in the source
Description: Antifungal activity against FLC resistant Candida albicans 0304103 after 48 hrs by checkerboard microdilution method

Candida albicans [20] = assay: microbe, parasite or virus in culture; type: functional; settings: Candida albicans, 0304103, 48 h; remark: listed apart in the source
Description: Antifungal activity against FLC resistant Candida albicans 0304103 after 48 hrs in presence of fluconazol by checkerboard microdilution method

[21] = biological target: T1, Protein deacetylase HDAC6 (Homo sapiens, UniProt Q9UBN7); assay: Inhibition of full length human recombinant HDAC6 expressed in Baculovirus infected Sf9 cells using (Ac-Leu-Gly-Lys(Ac)-AMC as substrate preincubated for 5 mins followed by substrate addition and measured after 30 mins by fluorescence assay
T1 sequence (Q9UBN7 whole entry): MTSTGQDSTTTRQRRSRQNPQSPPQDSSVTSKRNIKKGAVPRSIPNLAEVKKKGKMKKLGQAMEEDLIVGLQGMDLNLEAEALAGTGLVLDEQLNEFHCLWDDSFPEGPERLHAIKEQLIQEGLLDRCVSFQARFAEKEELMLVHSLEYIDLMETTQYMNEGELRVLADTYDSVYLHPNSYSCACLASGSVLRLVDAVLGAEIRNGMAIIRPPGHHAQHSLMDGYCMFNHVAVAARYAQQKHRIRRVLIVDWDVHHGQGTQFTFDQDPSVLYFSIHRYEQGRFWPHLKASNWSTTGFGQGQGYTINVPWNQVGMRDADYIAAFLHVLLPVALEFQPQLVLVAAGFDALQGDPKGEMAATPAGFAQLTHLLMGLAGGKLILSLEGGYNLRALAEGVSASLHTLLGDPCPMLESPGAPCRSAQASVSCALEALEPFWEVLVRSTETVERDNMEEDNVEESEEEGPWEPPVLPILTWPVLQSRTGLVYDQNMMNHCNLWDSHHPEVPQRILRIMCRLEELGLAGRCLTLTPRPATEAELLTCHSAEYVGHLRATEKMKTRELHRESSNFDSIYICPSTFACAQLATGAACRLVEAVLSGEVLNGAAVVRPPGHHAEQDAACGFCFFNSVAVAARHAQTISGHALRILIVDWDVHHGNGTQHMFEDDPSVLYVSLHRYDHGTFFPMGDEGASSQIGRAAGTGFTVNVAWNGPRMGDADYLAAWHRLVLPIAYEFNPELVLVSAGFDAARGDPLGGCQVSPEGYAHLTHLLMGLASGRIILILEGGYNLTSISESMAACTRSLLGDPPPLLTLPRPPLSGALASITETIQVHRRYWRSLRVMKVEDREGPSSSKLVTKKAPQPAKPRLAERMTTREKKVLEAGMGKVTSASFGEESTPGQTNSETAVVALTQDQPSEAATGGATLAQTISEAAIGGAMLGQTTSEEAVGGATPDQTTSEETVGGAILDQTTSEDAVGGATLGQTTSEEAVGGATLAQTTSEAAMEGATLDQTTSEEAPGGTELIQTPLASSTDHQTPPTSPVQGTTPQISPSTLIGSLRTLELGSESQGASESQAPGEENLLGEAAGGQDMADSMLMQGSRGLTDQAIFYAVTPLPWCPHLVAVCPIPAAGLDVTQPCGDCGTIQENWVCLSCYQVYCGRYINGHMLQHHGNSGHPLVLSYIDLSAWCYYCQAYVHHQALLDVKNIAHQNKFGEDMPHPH

Candida albicans [22] = assay: microbe, parasite or virus in culture; type: functional; settings: Candida albicans, 100, 48 h
Description: Antifungal activity against FLC resistant Candida albicans 100 assessed as fluconazol MIC50 after 48 hrs by checkerboard microdilution method

Candida albicans [23] = assay: Synergistic antifungal activity against FLC resistant Candida albicans 0710922 assessed as FIC index after 48 hrs by checkerboard microdilution method; type: functional

Sequence of Histone deacetylase 2 (Q92769 whole entry): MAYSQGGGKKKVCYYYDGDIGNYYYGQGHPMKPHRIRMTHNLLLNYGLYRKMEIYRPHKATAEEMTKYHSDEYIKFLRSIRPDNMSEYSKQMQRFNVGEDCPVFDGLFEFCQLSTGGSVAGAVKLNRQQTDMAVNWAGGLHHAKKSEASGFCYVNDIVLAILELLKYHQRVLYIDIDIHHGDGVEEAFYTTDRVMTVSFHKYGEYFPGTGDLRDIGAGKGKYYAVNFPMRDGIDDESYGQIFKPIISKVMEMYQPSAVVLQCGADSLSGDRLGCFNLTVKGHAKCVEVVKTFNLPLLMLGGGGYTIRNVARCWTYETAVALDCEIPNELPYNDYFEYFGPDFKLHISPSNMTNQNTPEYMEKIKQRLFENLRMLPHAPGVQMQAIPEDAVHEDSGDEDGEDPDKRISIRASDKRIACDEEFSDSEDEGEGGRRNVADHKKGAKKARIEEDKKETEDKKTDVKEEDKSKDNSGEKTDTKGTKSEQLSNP
Sequence of Histone deacetylase 3/NCoR1 (O15379 whole entry, the tested form may be a part): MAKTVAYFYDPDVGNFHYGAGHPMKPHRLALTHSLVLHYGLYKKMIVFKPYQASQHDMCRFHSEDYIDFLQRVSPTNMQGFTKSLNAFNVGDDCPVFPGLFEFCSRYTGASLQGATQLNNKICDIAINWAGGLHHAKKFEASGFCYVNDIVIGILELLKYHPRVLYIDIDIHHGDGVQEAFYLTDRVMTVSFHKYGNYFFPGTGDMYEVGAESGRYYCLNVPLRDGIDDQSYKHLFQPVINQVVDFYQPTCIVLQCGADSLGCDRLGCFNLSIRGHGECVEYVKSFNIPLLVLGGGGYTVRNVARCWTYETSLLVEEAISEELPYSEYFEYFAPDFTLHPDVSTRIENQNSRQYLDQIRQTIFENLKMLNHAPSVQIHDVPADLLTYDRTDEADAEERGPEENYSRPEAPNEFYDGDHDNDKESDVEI
Sequence of Histone deacetylase 3/NCoR1 (O75376 whole entry, further chain, the tested form may be a part): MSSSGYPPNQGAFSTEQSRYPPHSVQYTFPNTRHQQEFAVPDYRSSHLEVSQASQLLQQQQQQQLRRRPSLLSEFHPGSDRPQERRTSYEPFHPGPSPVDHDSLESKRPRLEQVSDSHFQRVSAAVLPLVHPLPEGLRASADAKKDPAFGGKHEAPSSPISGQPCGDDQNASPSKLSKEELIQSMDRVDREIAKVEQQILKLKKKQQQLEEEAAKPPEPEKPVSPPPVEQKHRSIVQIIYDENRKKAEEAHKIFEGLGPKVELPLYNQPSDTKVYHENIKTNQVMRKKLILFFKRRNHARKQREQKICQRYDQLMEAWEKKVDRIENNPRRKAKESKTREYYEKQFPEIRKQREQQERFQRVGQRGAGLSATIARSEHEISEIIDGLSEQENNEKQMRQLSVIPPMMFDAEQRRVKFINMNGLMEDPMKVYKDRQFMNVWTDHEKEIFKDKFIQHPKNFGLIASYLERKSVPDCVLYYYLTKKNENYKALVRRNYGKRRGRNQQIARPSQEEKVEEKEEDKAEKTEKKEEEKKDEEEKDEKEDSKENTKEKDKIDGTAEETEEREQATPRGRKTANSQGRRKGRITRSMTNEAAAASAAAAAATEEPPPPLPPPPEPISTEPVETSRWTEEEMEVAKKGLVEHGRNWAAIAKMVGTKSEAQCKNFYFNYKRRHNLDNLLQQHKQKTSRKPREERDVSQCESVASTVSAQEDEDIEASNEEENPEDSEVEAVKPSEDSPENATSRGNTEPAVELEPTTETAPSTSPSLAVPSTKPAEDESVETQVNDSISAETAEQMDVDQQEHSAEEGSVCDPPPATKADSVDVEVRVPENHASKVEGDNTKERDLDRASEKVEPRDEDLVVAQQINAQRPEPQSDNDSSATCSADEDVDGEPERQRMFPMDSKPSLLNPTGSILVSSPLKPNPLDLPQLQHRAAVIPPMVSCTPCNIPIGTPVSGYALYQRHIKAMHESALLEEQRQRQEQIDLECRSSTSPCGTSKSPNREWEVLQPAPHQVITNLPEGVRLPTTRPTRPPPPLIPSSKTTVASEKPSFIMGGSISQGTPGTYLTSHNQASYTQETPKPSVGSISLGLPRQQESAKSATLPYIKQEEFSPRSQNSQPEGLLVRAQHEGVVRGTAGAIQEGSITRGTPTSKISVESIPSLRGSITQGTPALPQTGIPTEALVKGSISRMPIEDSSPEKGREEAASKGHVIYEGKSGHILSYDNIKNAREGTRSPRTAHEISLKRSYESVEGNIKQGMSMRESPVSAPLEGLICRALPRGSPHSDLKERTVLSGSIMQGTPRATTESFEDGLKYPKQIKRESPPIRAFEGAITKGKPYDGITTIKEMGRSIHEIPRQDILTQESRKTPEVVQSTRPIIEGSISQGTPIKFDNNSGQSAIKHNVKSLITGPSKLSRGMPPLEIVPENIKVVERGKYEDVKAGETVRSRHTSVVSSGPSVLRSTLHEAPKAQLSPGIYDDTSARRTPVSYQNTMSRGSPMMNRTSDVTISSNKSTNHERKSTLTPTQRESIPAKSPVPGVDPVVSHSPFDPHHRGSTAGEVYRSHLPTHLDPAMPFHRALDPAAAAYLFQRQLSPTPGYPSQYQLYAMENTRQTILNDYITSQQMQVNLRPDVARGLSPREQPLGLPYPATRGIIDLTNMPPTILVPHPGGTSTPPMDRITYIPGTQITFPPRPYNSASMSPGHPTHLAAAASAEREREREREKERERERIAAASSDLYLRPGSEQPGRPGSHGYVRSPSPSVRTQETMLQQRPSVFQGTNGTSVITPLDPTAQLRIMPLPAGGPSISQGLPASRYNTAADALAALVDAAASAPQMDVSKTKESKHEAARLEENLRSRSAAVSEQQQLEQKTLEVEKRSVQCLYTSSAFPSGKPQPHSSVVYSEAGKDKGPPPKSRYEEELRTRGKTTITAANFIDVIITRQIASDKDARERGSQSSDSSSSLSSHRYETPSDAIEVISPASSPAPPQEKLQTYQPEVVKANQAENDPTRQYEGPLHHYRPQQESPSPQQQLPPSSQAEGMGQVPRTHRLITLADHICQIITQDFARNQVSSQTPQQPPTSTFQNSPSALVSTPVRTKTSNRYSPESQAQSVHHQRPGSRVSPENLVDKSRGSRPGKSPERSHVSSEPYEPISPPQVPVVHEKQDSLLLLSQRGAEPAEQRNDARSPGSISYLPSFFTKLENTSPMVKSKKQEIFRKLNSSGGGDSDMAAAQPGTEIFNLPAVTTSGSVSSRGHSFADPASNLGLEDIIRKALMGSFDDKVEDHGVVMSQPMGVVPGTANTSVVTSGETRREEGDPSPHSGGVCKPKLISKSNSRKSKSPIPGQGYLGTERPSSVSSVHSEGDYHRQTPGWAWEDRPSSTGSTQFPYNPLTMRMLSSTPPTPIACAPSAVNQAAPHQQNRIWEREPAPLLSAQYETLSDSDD
Sequence of Tyrosine-protein kinase JAK2 (O60674 whole entry): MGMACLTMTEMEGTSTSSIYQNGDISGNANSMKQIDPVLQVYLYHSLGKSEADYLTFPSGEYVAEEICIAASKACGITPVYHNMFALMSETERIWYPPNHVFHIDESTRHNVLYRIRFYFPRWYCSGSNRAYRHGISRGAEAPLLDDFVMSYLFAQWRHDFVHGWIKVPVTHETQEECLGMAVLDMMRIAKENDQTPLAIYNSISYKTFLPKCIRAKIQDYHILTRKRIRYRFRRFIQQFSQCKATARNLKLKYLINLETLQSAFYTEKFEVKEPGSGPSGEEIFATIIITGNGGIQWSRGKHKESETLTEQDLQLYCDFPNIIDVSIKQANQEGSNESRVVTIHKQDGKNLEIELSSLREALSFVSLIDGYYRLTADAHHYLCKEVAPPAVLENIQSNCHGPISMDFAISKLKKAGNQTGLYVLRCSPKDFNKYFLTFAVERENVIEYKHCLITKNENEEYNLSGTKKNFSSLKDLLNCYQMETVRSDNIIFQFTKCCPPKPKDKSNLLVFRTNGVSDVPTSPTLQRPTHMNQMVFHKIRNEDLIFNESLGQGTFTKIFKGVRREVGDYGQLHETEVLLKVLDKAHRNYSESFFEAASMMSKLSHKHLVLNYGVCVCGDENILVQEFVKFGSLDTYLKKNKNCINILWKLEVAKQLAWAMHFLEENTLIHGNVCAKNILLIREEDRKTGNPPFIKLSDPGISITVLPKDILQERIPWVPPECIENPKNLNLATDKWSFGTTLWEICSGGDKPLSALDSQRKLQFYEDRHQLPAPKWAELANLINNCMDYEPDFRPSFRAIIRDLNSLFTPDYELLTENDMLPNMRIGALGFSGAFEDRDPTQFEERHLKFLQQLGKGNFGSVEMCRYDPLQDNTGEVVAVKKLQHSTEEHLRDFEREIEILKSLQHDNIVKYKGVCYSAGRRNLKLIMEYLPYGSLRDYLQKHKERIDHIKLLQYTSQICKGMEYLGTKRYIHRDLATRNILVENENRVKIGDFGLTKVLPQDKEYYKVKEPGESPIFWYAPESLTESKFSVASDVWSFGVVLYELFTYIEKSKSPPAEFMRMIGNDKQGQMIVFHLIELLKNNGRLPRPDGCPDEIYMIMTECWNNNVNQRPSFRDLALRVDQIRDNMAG

Row | SMILES | Activity (Mus musculus [1]) | inhibition [2] | MIC50 (Candida albicans [3]) [µg/mL] | Activity (Mus musculus [4]) | IC50 [5] [nM] | IC50 (K562) [µM] | MST (Mus musculus [6]) [days] | Activity (HEL [7]) | MIC50 (Candida albicans [8]) [µg/mL] | MIC50 (Candida albicans [9]) [µg/mL] | inhibition (Candida albicans [10]) | Activity (Candida albicans [11]) | MIC50 (Candida albicans [12]) [µg/mL] | fractional inhibitory concentration index (FICI) (Candida albicans [13]) | IC50 (HL-60) [µM] | IC50 [14] [nM] | IC50 (Histone deacetylase 2) [nM] | MIC50 (Candida albicans [15]) [µg/mL] | IC50 (HEL [16]) [nM] | Activity (Mus musculus [17]) | other results
1 | CS(=O)(=O)Nc1ccc(-c2ccnc(Nc3ccc(N4CCC(C(=O)Nc5ccc(/C=C/C(=O)NO)cc5)CC4)cc3)n2)cc1 | Non-Toxic | Dose-dependent effect | 0.5 (≈ 0.797 µM) | Non-Toxic | 359 | 8.7 | 11.5 | Dose-dependent effect | > 64 | 1 (≈ 1.59 µM) | Dose-dependent effect | Active | 4 | 0.07 | 1.5 | 234 | 7470 | 8 (≈ 12.7 µM) | 340 | Active | half-life at 1 µM [18]: 19.4 min; MIC50 (Candida albicans [19]): > 64 µg/mL; MIC50 (Candida albicans [20]): 4 µg/mL (≈ 6.37 µM); IC50 [21]: 46 nM; MIC50 (Candida albicans [22]): 0.5 µg/mL (≈ 0.797 µM); fractional inhibitory concentration index (FICI) (Candida albicans [23]): 0.14
2 | CS(=O)(=O)Nc1ccc(-c2ccnc(Nc3ccc(N4CCC(C(=O)NCCCCCCCC(=O)NO)CC4)cc3)n2)cc1 | Non-Toxic | Dose-dependent effect | 0.25 (≈ 0.401 µM) | Non-Toxic | 76 | 5.9 | 13 | Dose-dependent effect | > 64 | 0.25 (≈ 0.401 µM) | Dose-dependent effect | Active | 8 | 0.13 | > 50 | 17 | 132 | 16 (≈ 25.7 µM) | 1800 | Active | half-life at 1 µM [18]: 15.7 min; MIC50 (Candida albicans [19]): > 64 µg/mL; MIC50 (Candida albicans [20]): 8 µg/mL (≈ 12.8 µM); IC50 [21]: 74 nM; MIC50 (Candida albicans [22]): 0.5 µg/mL (≈ 0.802 µM); fractional inhibitory concentration index (FICI) (Candida albicans [23]): 0.26
3 | O=C(NO)c1ccc(-c2ccnc(Nc3ccc(N4CCOCC4)cc3)n2)cc1 | Non-Toxic | Dose-dependent effect | 0.5 (≈ 1.28 µM) | Non-Toxic | 69 | 4 | 11 | Dose-dependent effect | > 64 | 1 (≈ 2.55 µM) | Dose-dependent effect | Active | 8 | 0.07 | 6.1 | 45 | 1700 | 16 (≈ 40.9 µM) | 3500 | Active | half-life at 1 µM [18]: 16.5 min; MIC50 (Candida albicans [19]): > 64 µg/mL; MIC50 (Candida albicans [20]): 4 µg/mL (≈ 10.2 µM); IC50 [21]: 419 nM; MIC50 (Candida albicans [22]): 0.5 µg/mL (≈ 1.28 µM); fractional inhibitory concentration index (FICI) (Candida albicans [23]): 0.27
